# Data from BigSolDB 2.1.
structure (smiles),measurement,setting,value
COC(=O)C1=C(C)NC(C)=C(C(=O)OCC(C)C)C1c1ccccc1[N+](=O)[O-] (stereo not given),solubility (mole fraction),"in acetonitrile, 278.15 K",0.00849
same,solubility (mole fraction),"in acetonitrile, 283.15 K",0.0102
same,solubility (mole fraction),"in acetonitrile, 288.15 K",0.012
same,solubility (mole fraction),"in acetonitrile, 293.15 K",0.0144
same,solubility (mole fraction),"in acetonitrile, 298.15 K",0.0169
same,solubility (mole fraction),"in acetonitrile, 303.15 K",0.0197
same,solubility (mole fraction),"in acetonitrile, 308.15 K",0.0232
same,solubility (mole fraction),"in acetonitrile, 313.15 K",0.0271
same,solubility (mole fraction),"in acetonitrile, 318.15 K",0.0317
same,solubility (mole fraction),"in cyclohexane, 283.15 K",5.7e-05
same,solubility (mole fraction),"in cyclohexane, 288.15 K",7.3e-05
same,solubility (mole fraction),"in cyclohexane, 293.15 K",9.1e-05
same,solubility (mole fraction),"in cyclohexane, 298.15 K",0.000111
same,solubility (mole fraction),"in cyclohexane, 303.15 K",0.000137
same,solubility (mole fraction),"in cyclohexane, 308.15 K",0.000164
same,solubility (mole fraction),"in cyclohexane, 313.15 K",0.000198
same,solubility (mole fraction),"in cyclohexane, 318.15 K",0.000237
same,solubility (mole fraction),"in ethanol, 278.15 K",0.00278
same,solubility (mole fraction),"in ethanol, 283.15 K",0.00348
same,solubility (mole fraction),"in ethanol, 288.15 K",0.0043
same,solubility (mole fraction),"in ethanol, 293.15 K",0.00529
same,solubility (mole fraction),"in ethanol, 298.15 K",0.00648
same,solubility (mole fraction),"in ethanol, 303.15 K",0.00789
same,solubility (mole fraction),"in ethanol, 308.15 K",0.00935
same,solubility (mole fraction),"in ethanol, 313.15 K",0.0112
same,solubility (mole fraction),"in ethanol, 318.15 K",0.0134
same,solubility (mole fraction),"in ethyl acetate, 278.15 K",0.0166
same,solubility (mole fraction),"in ethyl acetate, 283.15 K",0.0188
same,solubility (mole fraction),"in ethyl acetate, 288.15 K",0.0215
same,solubility (mole fraction),"in ethyl acetate, 293.15 K",0.0246
same,solubility (mole fraction),"in ethyl acetate, 298.15 K",0.0278
same,solubility (mole fraction),"in ethyl acetate, 303.15 K",0.0316
same,solubility (mole fraction),"in ethyl acetate, 308.15 K",0.0358
same,solubility (mole fraction),"in ethyl acetate, 313.15 K",0.0401
same,solubility (mole fraction),"in ethyl acetate, 318.15 K",0.0457
same,solubility (mole fraction),"in isopropanol, 278.15 K",0.00467
same,solubility (mole fraction),"in isopropanol, 283.15 K",0.00563
same,solubility (mole fraction),"in isopropanol, 288.15 K",0.00669
same,solubility (mole fraction),"in isopropanol, 293.15 K",0.00796
same,solubility (mole fraction),"in isopropanol, 298.15 K",0.00935
same,solubility (mole fraction),"in isopropanol, 303.15 K",0.011
same,solubility (mole fraction),"in isopropanol, 308.15 K",0.0129
same,solubility (mole fraction),"in isopropanol, 313.15 K",0.0152
same,solubility (mole fraction),"in isopropanol, 318.15 K",0.0178
same,solubility (mole fraction),"in n-butanol, 278.15 K",0.00573
same,solubility (mole fraction),"in n-butanol, 283.15 K",0.00671
same,solubility (mole fraction),"in n-butanol, 288.15 K",0.00795
same,solubility (mole fraction),"in n-butanol, 293.15 K",0.00938
same,solubility (mole fraction),"in n-butanol, 298.15 K",0.0111
same,solubility (mole fraction),"in n-butanol, 303.15 K",0.0129
same,solubility (mole fraction),"in n-butanol, 308.15 K",0.0149
same,solubility (mole fraction),"in n-butanol, 313.15 K",0.0173
same,solubility (mole fraction),"in n-butanol, 318.15 K",0.0202
same,solubility (mole fraction),"in n-propanol, 278.15 K",0.00378
same,solubility (mole fraction),"in n-propanol, 283.15 K",0.00455
same,solubility (mole fraction),"in n-propanol, 288.15 K",0.00545
same,solubility (mole fraction),"in n-propanol, 293.15 K",0.00657
same,solubility (mole fraction),"in n-propanol, 298.15 K",0.0078
same,solubility (mole fraction),"in n-propanol, 303.15 K",0.00941
same,solubility (mole fraction),"in n-propanol, 308.15 K",0.0111
same,solubility (mole fraction),"in n-propanol, 313.15 K",0.013
same,solubility (mole fraction),"in n-propanol, 318.15 K",0.0155
same,solubility (mole fraction),"in toluene, 278.15 K",0.00154
same,solubility (mole fraction),"in toluene, 283.15 K",0.00183
same,solubility (mole fraction),"in toluene, 288.15 K",0.00218
same,solubility (mole fraction),"in toluene, 293.15 K",0.0026
same,solubility (mole fraction),"in toluene, 298.15 K",0.00309
same,solubility (mole fraction),"in toluene, 303.15 K",0.00366
same,solubility (mole fraction),"in toluene, 308.15 K",0.00428
same,solubility (mole fraction),"in toluene, 313.15 K",0.005
same,solubility (mole fraction),"in toluene, 318.15 K",0.00588
same,solubility (mole fraction),"in water, 278.15 K",4e-06
same,solubility (mole fraction),"in water, 283.15 K",5e-06
same,solubility (mole fraction),"in water, 288.15 K",7e-06
same,solubility (mole fraction),"in water, 293.15 K",9e-06
same,solubility (mole fraction),"in water, 298.15 K",1.2e-05
same,solubility (mole fraction),"in water, 303.15 K",1.5e-05
same,solubility (mole fraction),"in water, 308.15 K",1.9e-05
same,solubility (mole fraction),"in water, 313.15 K",2.4e-05
same,solubility (mole fraction),"in water, 318.15 K",3e-05
